Test results as given in patent publication US20240317735A1, “HYDROISOQUINOLINE OR HYDRONAPHTHYRIDINE COMPOUNDS FOR THE TREATMENT OF AUTOIMMUNE DISEASE” (Hoffmann-La Roche Inc., priority 2020, published 2024).

Columns and labels:
TLR9 = biological target: T1, TLR9 (Homo sapiens, UniProt Q9NR96); assay: HEK293-Blue-hTLR-9 cells assay (SEAP reporter, ODN2006 stimulation); assay type: cell-based; design: host or cells: HEK293 (HEK-Blue hTLR9); conditions: HEK293-Blue-hTLR9 cells, ODN2006, 20 hrs; read-out: HEK/hTLR9 IC50
T1 sequence (Q9NR96 26-1032): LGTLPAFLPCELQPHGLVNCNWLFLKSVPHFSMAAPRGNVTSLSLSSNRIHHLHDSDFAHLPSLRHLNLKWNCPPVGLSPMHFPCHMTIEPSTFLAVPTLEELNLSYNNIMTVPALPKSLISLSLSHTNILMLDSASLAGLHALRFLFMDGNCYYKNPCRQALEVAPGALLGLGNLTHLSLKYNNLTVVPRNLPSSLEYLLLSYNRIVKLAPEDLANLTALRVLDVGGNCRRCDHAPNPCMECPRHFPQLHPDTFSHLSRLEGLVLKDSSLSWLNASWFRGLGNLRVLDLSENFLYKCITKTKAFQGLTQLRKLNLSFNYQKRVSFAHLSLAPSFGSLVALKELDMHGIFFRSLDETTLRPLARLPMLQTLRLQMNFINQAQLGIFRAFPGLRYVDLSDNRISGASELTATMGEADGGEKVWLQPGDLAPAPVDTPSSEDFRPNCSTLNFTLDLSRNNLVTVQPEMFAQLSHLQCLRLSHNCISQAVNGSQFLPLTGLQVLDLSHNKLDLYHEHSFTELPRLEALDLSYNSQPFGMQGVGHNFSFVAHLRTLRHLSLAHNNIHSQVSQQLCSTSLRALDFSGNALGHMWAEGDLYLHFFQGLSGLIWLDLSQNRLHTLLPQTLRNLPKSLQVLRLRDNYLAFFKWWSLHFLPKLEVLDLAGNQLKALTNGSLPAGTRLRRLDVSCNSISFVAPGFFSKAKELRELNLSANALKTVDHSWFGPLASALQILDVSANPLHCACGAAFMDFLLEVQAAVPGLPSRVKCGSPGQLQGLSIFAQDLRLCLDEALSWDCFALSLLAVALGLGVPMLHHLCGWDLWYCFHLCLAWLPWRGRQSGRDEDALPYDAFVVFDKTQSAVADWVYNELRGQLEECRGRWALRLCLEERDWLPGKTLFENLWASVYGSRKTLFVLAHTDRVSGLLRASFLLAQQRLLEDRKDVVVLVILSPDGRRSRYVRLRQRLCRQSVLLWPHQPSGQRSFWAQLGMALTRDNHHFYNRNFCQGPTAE
Procedure, shortened: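 Antagonist format: cells in DMEM/10% FBS exposed to serially diluted compound (1% DMSO) plus ODN2006 stimulation for 20 h at 37°C. Supernatant SEAP measured with QUANTI-Blue substrate, 2 h at 37°C, absorbance 620–655 nm.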

[1] = Human microsome stability assay; assay type: in vitro ADME; conditions: 1 μM test compound, 0.5 mg/mL liver microsomal protein, 37° C., pH 7.4
Procedure, shortened: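 1 μM compound with 0.5 mg/mL human liver microsomes in 100 mM potassium phosphate pH 7.4, 37° C, started with NADPH-regenerating system after 10 min preincubation. Sampled at 0, 3, 6, 9, 15, 30 min, quenched in acetonitrile; parent remaining by LC-MS/MS, with no-NADPH controls.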

Row | SMILES | IC50 (TLR9) [nM] | Clearance of Human microsome [1] [mL/min/kg]
1 | Cc1cc(N2Cc3ccc(N4CC5(CNCCO5)C4)nc3[C@@H](C)C2)c2cnn(C)c2n1 [Example 68, 2-[(8S)-6-(1,6-dimethylpyrazolo[3,4-b]pyridin-4-yl)-8-methyl-7,8-dihydro-5H-1,6-naphthyridin-2-yl]-5-oxa-2,8-diazaspiro[3.5]nonane] | 332 | 9.8
2 | CO[C@@H]1CN(c2ccc3c(n2)[C@@H](C)CN(c2cc(C)nc4c2cnn4C)C3)C[C@H]1N [Example 63, (3R,4R)-4-methoxy-1-[(8S)-6-(1,6-dimethylpyrazolo[3,4-b]pyridin-4-yl)-8-methyl-7,8-dihydro-5H-1,6-naphthyridin-2-yl]pyrrolidin-3-amine] | 236 | 6.2
3 | C[C@H]1CN(c2ccnc3c2cnn3C)Cc2ccc(N3C4CCC3CNC4)cc21 [Example 27, (4R)-6-(3,8-diazabicyclo[3.2.1]octan-8-yl)-4-methyl-2-(1-methylpyrazolo[3,4-b]pyridin-4-yl)-3,4-dihydro-1H-isoquinoline] | 185 | 6.2
4 | C[C@H]1CN(c2ccnc3c2cnn3C)Cc2ccc(OC[C@@H]3CNCCN3)cc21 [Example 19, (4R)-4-methyl-2-(1-methylpyrazolo[3,4-b]pyridin-4-yl)-6-[[(2S)-piperazin-2-yl]methoxy]-3,4-dihydro-1H-isoquinoline] | 101 | 7.7
5 | Cc1cc(N2Cc3cnc(OCCN4CCNCC4)cc3[C@@H](C)C2)c2cnn(C)c2n1 [Example 77, (4R)-2-(1,6-dimethylpyrazolo[3,4-b]pyridin-4-yl)-4-methyl-6-(2-piperazin-1-ylethoxy)-3,4-dihydro-1H-2,7-naphthyridine] | 144 | 6.2
